Consider 24 compounds from patent US10774082B2, “Quinazoline compound” (Astellas Pharma Inc., priority 2017, dated 2020).

Molecules are shown by their SMILES. Where two headings read alike, the source gives them in different places.

Assay [1] deals with T1, KRAS G12C/SOS/c-Raf complex (Homo sapiens, UniProt P01116, G12C).
T1 construct: Biotinylated AviTag-KRAS G12C (amino acid region 1-185, GDP)
In words: KRAS G12C/SOS/c-Raf complex formation inhibitory action (TR-FRET). The class given is biochemical. Conditions: one hour at room temperature, read-out: IC50 (KRAS G12C/SOS/c-Raf complex formation inhibition). The procedure, abridged: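 Biotin-AviTag KRAS G12C (1-185, GDP-bound) was mixed with compound (4,000 to 4 nM stock dilutions), SOS (564-1049), GST-c-Raf (51-131) and GTP in pH 7.4 HEPES/NaCl/MgCl2/Tween buffer for 1 h at room temperature. Complex formation was read by TR-FRET with Eu-streptavidin and ULight-anti-GST (ex 337 nm, em 620/665 nm).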
For orientation: Time-resolved FRET reads energy transfer from a long-lived donor to a nearby acceptor.

The subject of assay [2] is NCI-H1373 cells. In words: Anchorage-independent cell proliferation inhibitory action, NCI-H1373 spheroid three-dimensional culture. It counts as cell-based, Human. Conditions: read-out: IC50 (anchorage-independent cell proliferation inhibition). The procedure, abridged: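 KRAS G12C NCI-H1373 cells were grown as spheroids in low-attachment U-bottom wells and treated the next day with compound, six points from 1,000 to 0.3 nM final. After six days at 37°C, viability was read by CellTiter-Glo luminescence. IC50 was fitted by Sigmoid-Emax regression, with DMSO set as 0% and cell-free medium as 100% inhibition.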

The subject of assay [3] is NCI-H1373 tumor. In words: Antitumor effect in NCI-H1373 tumor-bearing mouse. It counts as in vivo. The conditions noted are these: 10 mg/kg orally once a day for 13 or 14 days. On the procedure: Evaluation of Antitumor Effect in Human KRAS G12C Mutation Positive Non-Small Cell Lung Cancer Strain NCI-H1373 Tumor-Bearing Mouse
A cell suspension prepared per 3.0×10^7/mL by suspending NCI-H1373 cells in PBS, an equivalent amount of Matrigel (Becton, Dickinson and Company) was added thereto, and the cell suspension was subcutaneously planted in a volume of 100 μL to male nude mice of 4-5 weeks old (CAnN.Cg-Foxnlnu/CrlCrlj (nu/nu), Charles River Laboratories Japan, Inc.). Approximately 2 weeks after planting, groups were divided so that tumor volume and body weight between the groups were almost equivalent to each other, and administration of the test compound was started from the next day. The test was conducted with five mice in a solvent group and five mice in a test compound administration group, and an aqueous solution of 6% 2-hydroxypropyl-β-cyclodextrin (Sigma-Aldrich Co. LLC) was orally administered to the solvent group and an aqueous solution of 6% 2-hydroxypropyl-β-cyclodextrin which the test compound (10 or 40 mg/kg) was mixed was orally administered to the test compound administration group. The administration was performed once a day for 13 or 14 days, and tumor diameter and volume were measured twice a week. For calculation of tumor volume, the following formula was used. [tumor volume (mm^3)]=[major diameter (mm) of tumor]×[minor diameter (mm) of tumor]^2×0.5
The tumor growth inhibition rate (%) by the test compound was calculated by setting the tumor volume of the test compound administration group on the day before the administration started as 100% inhibition, and the tumor volume of the solvent group on the last day of administration as 0% inhibition. In addition, in a case where the tumor volume of the test compound administration group was lower than the tumor volume on the day before the administration started, the tumor regression rate (%) of the test compound was calculated by setting the tumor volume on the day before the administration started as 0% regression, and the tumor volume 0 as 100% regression.

Where [4] appears, read: Homo sapiens, NCI-H1373, 144 h, NCI-H1373 spheroid, six days, CellTiter Glo.
The mark [5] stands for this setting: NCI-H1373 spheroid, six days, CellTiter Glo.

T1 sequence (P01116 1-185 isoform P01116-2 G12C, one chain of several): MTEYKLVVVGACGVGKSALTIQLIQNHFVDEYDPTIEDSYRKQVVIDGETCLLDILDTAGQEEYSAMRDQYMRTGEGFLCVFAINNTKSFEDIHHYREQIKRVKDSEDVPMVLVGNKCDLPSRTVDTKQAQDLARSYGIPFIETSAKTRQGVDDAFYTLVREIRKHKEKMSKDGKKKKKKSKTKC

In the case of `C=CC(=O)N1CC2(CCN(c3nc(OC4CCN(C5CCOCC5)CC4)nc4c(OCC(F)(F)F)c(-c5c(C)ccc6[nH]ncc56)c(C=C)cc34)CC2)C1` (single isomer, unassigned) [Ex 39], the values for the IC50 in assay [1] and in assay [2] (setting [4]) were 0.014 µM and 0.0043 µM, respectively.

Regarding `C=CC(=O)N1CCN(c2nc(OC3CCN(C)CC3)nc3c(F)c(-c4c(C)ccc5[nH]ncc45)c(Cl)cc23)CC1` [Compound C, reference compound], the figures for the IC50 in assay [1] and in assay [2] (setting [4]) were 0.068 µM and 0.32 µM, respectively.

On to `C=CC(=O)N1CC2(CCN(c3nc(OC4CCN(C)CC4)nc4c(OCC)c(-c5c(C)ccc6[nH]ncc56)c(C5CC5)cc34)CC2)C1` [Ex 2], for which the IC50 in assay [1] is 0.037 µM; in assay [2] (setting [4]), 0.0062 µM.

Turning to `C=CC(=O)N1CC2(CCN(c3nc(OC4CCN(C)CC4)nc4c(OCC(F)F)c(-c5c(C)ccc6[nH]ncc56)c(C5CC5)cc34)CC2)C1` [Ex 3], the IC50 in assay [1] stood at 0.029 µM; in assay [2] (setting [4]), 0.0047 µM.

As for `C=CC(=O)N1CC2(CCN(c3nc(OC[C@@H]4CCCN4C)nc4c(OCC(F)F)c(-c5c(C)ccc6[nH]ncc56)c(C5CC5)cc34)CC2)C1` [Ex 4], the IC50 was 0.035 µM in assay [1] and 0.0034 µM in assay [2] (setting [4]).

In the case of `C=CC(=O)N1CC2(CCN(c3nc(OC4CCN(CC)CC4)nc4c(OCC)c(-c5c(C)ccc6[nH]ncc56)c(C=C)cc34)CC2)C1` [Ex 7], the IC50 in assay [1] is 0.033 µM; in assay [2] (setting [4]) it was 0.011 µM.

In the case of `C=CC(=O)N1CC2(CCN(c3nc(OC4CCN(C)CC4)nc4c(OCC)c(-c5c(C)ccc6[nH]ncc56)c(C=C)cc34)CC2)C1` [Ex 24], the IC50 in assay [1] worked out at 0.021 µM; in assay [2] (setting [4]) it was 0.0061 µM.

Consider `C=CC(=O)N1CC2(CCN(c3nc(OC4CCN(CCOC)CC4)nc4c(OCC(F)(F)F)c(-c5c(C)ccc6[nH]ncc56)c(C5CC5)cc34)CC2)C1` [Ex 25], for which the IC50 in assay [1] turned out to be 0.048 µM.

As to `C=CC(=O)N1CC2(CCN(c3nc(OC4CCN(CCOC)CC4)nc4c(OCC(F)(F)F)c(-c5c(C)ccc6[nH]ncc56)c(C=C)cc34)CC2)C1` [Ex 26], the IC50 in assay [1] stood at 0.041 µM.

As for `C=CC(=O)N1CC2(CCN(c3nc(OC4CCN(CCCOC)CC4)nc4c(OCC(F)(F)F)c(-c5c(C)ccc6[nH]ncc56)c(C5CC5)cc34)CC2)C1` [Ex 28], the IC50 in assay [1] came out at 0.038 µM.

As to `C=CC(=O)N1CC2(CCN(c3nc(OC4CCN(C5CCOCC5)CC4)nc4c(OCC(F)(F)F)c(-c5c(C)ccc6[nH]ncc56)c(C=C)cc34)CC2)C1` [Ex 30], the values for the IC50 in assay [1] and in assay [2] (setting [4]) were 0.045 µM and 0.0054 µM, respectively.

Turning to `C=CC(=O)N1CC2(CCN(c3nc(OC[C@@H]4CCCN4C)nc4c(OC5CCC5)c(-c5c(C)ccc6[nH]ncc56)c(C=C)cc34)CC2)C1` [Example 15], the IC50 was 0.052 µM in assay [1] and 0.014 µM in assay [2] (Homo sapiens, NCI-H1373, 144 h).

As for `C=CC(=O)N1CC2(CCN(c3nc(OC[C@@H]4CCCN4C)nc4c(OCC)c(-c5c(C)ccc6[nH]ncc56)c(C=C)cc34)CC2)C1` [Example 16], the IC50 is 0.045 µM in assay [1] and 0.01 µM in assay [2] (Homo sapiens, NCI-H1373, 144 h).

In the case of `C=CC(=O)N1CC2(CCN(c3nc(OC4CCN(CCOCC)CC4)nc4c(OCC(F)(F)F)c(-c5c(C)ccc6[nH]ncc56)c(C=C)cc34)CC2)C1` [Example 29], the values for the IC50 in assay [1] and in assay [2] (setting [4]) were 0.049 µM and 0.01 µM, respectively.

Turning to `C=CC(=O)N1CC2(CCN(c3nc(OC4CCN(CCOC)CC4)nc4c(OCC(F)F)c(-c5c(C)ccc6[nH]ncc56)c(C5CC5)cc34)CC2)C1` [Example 32], the values for the IC50 in assay [1] and in assay [2] (setting [4]) were 0.039 µM and 0.0071 µM, respectively.

For `C=CC(=O)N1CC2(CCN(c3nc(OC4CCN(C5COC5)CC4)nc4c(OCC(F)(F)F)c(-c5c(C)ccc6[nH]ncc56)c(C=C)cc34)CC2)C1` [Example 33], the IC50 in assay [1] was 0.044 µM; in assay [2] (setting [4]) it was 0.0087 µM.

Regarding `C=CC(=O)N1CC2(CCN(c3nc(OC4CCN(C5COC5)CC4)nc4c(OCC)c(-c5c(C)ccc6[nH]ncc56)c(C5CC5)cc34)CC2)C1` [Example 34], the IC50 in assay [1] stood at 0.036 µM; in assay [2] (setting [4]), 0.0075 µM.

For `C=CC(=O)N1CC2(CCN(c3nc(OC4CCN(CCOC)CC4)nc4c(OCC(F)(F)F)c(-c5c(C)ccc6[nH]ncc56)c(C5CC5)cc34)CC2)C1` [Example 35], the IC50 was determined as 0.017 µM in assay [1] and 0.0025 µM in assay [2] (setting [5]). Also, the “Antitumor effect: tumor regression rate” value in assay [3] is 72% regression.

Take `C=CC(=O)N1CC2(CCN(c3nc(OC4CCN(CCOCC)CC4)nc4c(OCC(F)(F)F)c(-c5c(C)ccc6[nH]ncc56)c(C=C)cc34)CC2)C1` [Example 37]: the IC50 in assay [1] was 0.017 µM; in assay [2] (setting [5]), 0.0088 µM. Besides, in assay [3], the “Antitumor effect: tumor regression rate” value is on record as 58% regression.

`C=CC(=O)N1CC2(CCN(c3nc(OC4CCN(CC(C)(C)O)CC4)nc4c(OCC(F)(F)F)c(-c5c(C)ccc6[nH]ncc56)c(C=C)cc34)CC2)C1` [Example 40]: the IC50 in assay [1] came out at 0.015 µM; in assay [2] (setting [5]), 0.0051 µM. Also, in assay [3], the “Antitumor effect: tumor regression rate” value stood at 15% regression.

Consider `C=CC(=O)N1CC2(CCN(c3nc(N4CCN(C)CC4)nc4c(OCC(F)(F)F)c(-c5c(C)ccc6[nH]ncc56)c(C=C)cc34)CC2)C1` [Example 50], for which the figures for the IC50 in assay [1] and in assay [2] (setting [4]) were 0.05 µM and 0.016 µM, respectively.

As for `C=CC(=O)N1CC2(CCN(c3nc(OC4CCN(C)CC4F)nc4c(OCC(F)(F)F)c(-c5c(C)ccc6[nH]ncc56)c(C=C)cc34)CC2)C1` (stereo not drawn) [Example 52], the results for the IC50 in assay [1] and in assay [2] (setting [4]) were 0.056 µM and 0.016 µM, respectively.

For the compound `C=CC(=O)N1CC2(CCN(c3nc(OC4CCN(Cc5ccccn5)CC4)nc4c(OCC(F)(F)F)c(-c5c(C)ccc6[nH]ncc56)c(C=C)cc34)CC2)C1` [Example 56], the IC50 in assay [1] stood at 0.063 µM; in assay [2] (setting [4]), 0.021 µM.

For the compound `C=CC(=O)N1CC2(CCN(c3nc(N4CC(N(C)C)C4)nc4c(OCC(F)(F)F)c(-c5c(C)ccc6[nH]ncc56)c(C=C)cc34)CC2)C1` [Example 65], the figures for the IC50 in assay [1] and in assay [2] (setting [4]) were 0.046 µM and 0.027 µM, respectively.
